Reference: ChEMBL document CHEMBL1131012, “Heteroaryl analogues of AMPA. 2. Synthesis, absolute stereochemistry, photochemistry, and structure-activity relationships” (J Med Chem, 1998)

Tests used:
[1] = molecular target: Glutamate NMDA receptor; assay: Ability to inhibit the binding of [3H]CPP radioligand to N-methyl-D-aspartate glutamate receptor in rat brain membranes.; type: cell membranes
[2] = molecular target: T1, Glutamate receptor ionotropic, AMPA (Rattus norvegicus, UniProt P19490+P19491+P19492+P19493)
Description: Agonist effect for Ionotropic glutamate receptor AMPA was determined from in vitro electrophysiology studies using rat cortical wedge preparation.

[3] = molecular target: Glutamate receptor ionotropic, kainate; assay: Ability to inhibit the binding of [3H]-kainic acid radioligand to Ionotropic glutamate receptor kainate in rat brain membranes.; type: cell membranes
[4] = molecular target: T1, Glutamate receptor ionotropic, AMPA; remark: listed apart in the source
Description: Ability to inhibit the binding of [3H]AMPA radioligand to Ionotropic glutamate receptor AMPA in rat brain membranes.

SMILES | IC50 [1] | EC50 [2] | IC50 [3] | IC50 [4]
NC(Cc1c(O)noc1-c1nccs1)C(=O)O (stereo unspecified) | > 100 µM | 2.3 µM | 4.9 µM | 0.094 µM
NC(Cc1c(O)noc1-c1cccnc1)C(=O)O (stereo unspecified) | > 100 µM | > 1000 µM | > 100 µM | > 100 µM
N[C@H](Cc1c(O)noc1-c1ccccn1)C(=O)O | > 100 µM | > 100 µM | > 100 µM | > 100 µM
N[C@H](Cc1c(O)noc1-c1ccccc1)C(=O)O | – | > 100 µM | – | –
NC(Cc1c(O)noc1-c1ccc(Br)o1)C(=O)O (stereo unspecified) | > 100 µM | 160 µM | > 100 µM | 12 µM
Cc1cccc(-c2onc(O)c2CC(N)C(=O)O)n1 (stereo unspecified) | > 100 µM | > 1000 µM | > 100 µM | > 100 µM
NC(Cc1c(O)noc1-c1ccc2ccccc2n1)C(=O)O (stereo unspecified) | > 100 µM | > 1000 µM | > 100 µM | > 100 µM
N[C@@H](Cc1c(O)noc1-c1ccccn1)C(=O)O | > 100 µM | 4.5 µM | > 100 µM | 0.19 µM
N[C@@H](Cc1c(-c2ccccc2)o[nH]c1=O)C(=O)O | – | – | – | 5.5 µM
N[C@H](Cc1c(O)noc1-c1ccco1)C(=O)O | > 100 µM | > 1000 µM | > 100 µM | 100 µM
NC(Cc1c(O)noc1-c1ccccn1)C(=O)O (stereo unspecified) | > 100 µM | 7.4 µM | > 100 µM | 0.57 µM
NC(Cc1c(O)noc1-c1ccncc1)C(=O)O (stereo unspecified) | > 100 µM | 96 µM | > 100 µM | 5.5 µM
NC(Cc1c(O)noc1-c1ccco1)C(=O)O (stereo unspecified) | > 100 µM | 1.7 µM | > 100 µM | 0.15 µM
N[C@@H](Cc1c(O)noc1-c1ccco1)C(=O)O | > 100 µM | 0.71 µM | > 100 µM | 0.11 µM
C=C(C)[C@H]1CN[C@H](C(=O)O)[C@H]1CC(=O)O [KAINIC ACID] | > 100 µM | – | – | –
